Bounds are passed on as bounds.

The term IC50 denotes the concentration that gives 50% inhibition.

human ALK5, sequence (P36897 80-503 limits assumed): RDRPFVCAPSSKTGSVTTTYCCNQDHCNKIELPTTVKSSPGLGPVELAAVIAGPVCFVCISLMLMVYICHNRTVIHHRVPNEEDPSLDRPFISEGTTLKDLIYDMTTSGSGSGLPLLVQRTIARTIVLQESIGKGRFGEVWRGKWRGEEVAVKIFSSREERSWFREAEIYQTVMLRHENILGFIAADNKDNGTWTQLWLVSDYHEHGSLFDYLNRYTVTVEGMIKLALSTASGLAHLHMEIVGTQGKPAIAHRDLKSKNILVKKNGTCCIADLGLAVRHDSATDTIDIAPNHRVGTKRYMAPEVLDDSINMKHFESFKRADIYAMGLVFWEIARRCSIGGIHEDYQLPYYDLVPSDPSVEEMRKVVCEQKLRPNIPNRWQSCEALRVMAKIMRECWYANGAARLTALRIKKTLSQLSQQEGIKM

The first assay addresses human ALK5 (Homo sapiens (Human), UniProt P36897). As to the kind of experiment: ADP-GLO Kinases assay, inhibitory activity on ALK5. Format: biochemical.
Conditions: not given
As for the experimental part: The enzymatic activity of compounds of the present invention was monitored measuring the formation of ADP using the ADP-GLO Kinases assay. Following the incubation of the purified enzyme, a substrate and ATP, the produced ADP was converted into ATP, which in turn was converted into light by Ultra-Glo Luciferase. The luminescent signal positively correlated with ADP amount and kinase activity. […] The assay was performed in 384-well format and was validated using a selection of reference compounds that was tested in 11 point concentration-response curve.
(ADP-Glo turns the ADP formed in a reaction into a luminescent signal.)
Compound `CN1CCN(C(=O)Oc2ccc3c(Nc4cnnc(-c5cc(Cl)ccc5F)c4)ccnc3c2)CC1` [Example 28, 4-{[6-(5-Chloro-2-Fluorophenyl)Pyridazin-4-Yl]Amino}Quinolin-7-Yl 4-Methylpiperazine-1-Carboxylate] registered an IC50 of 1 to 5 nM.

Still in this assay, the particulars now being: purified recombinant human ALK5 2.6 nM, TGFβ1 peptide substrate, 25° C, 150 min incubation, ADP-Glo detection; read-out: ALK5 IC50.
Regarding “1-(4-{[6-(2-Chloro-5-Fluorophenyl)-3-Methylpyridazin-4-Yl]Amino}Pyridin-2-Yl)-3-[(1-Methylpiperidin-4-Yl)Methyl]Urea [Example 142]”, the IC50 is less than 1 nM. For `O=C(CCN1CCNCC1)Nc1cc(Nc2cnnc(-c3cc(Cl)ccc3F)c2)ccn1` [Example 2, N-(4-{[6-(5-Chloro-2-Fluorophenyl)Pyridazin-4-Yl]Amino}Pyridin-2-Yl)-3-(Piperazin-1-Yl)Propanamide], the IC50 is less than 1 nM.

As for `Fc1ccc(Cl)cc1-c1cc(Nc2ccnc3cc(OCCN4CCOCC4)ccc23)cnn1` [Example 3, N-[6-(5-Chloro-2-Fluorophenyl)Pyridazin-4-Yl]-7-[2-(Morpholin-4-Yl)Ethoxy]Quinolin-4-Amine], the IC50 was less than 1 nM. With `O=C(NCCN1CCOCC1)c1ccc2c(Nc3cnnc(-c4cc(Cl)ccc4F)c3)ccnc2c1` [Example 4, 4-{[6-(5-Chloro-2-Fluorophenyl)Pyridazin-4-Yl]Amino}-N-[2-(Morpholin-4-Yl)Ethyl]Quinoline-7-Carboxamide], the IC50 was less than 1 nM. As to `O=C(OCCN1CCOCC1)c1ccc2nccc(Nc3cnnc(-c4cc(Cl)ccc4F)c3)c2c1` [Example 5, 2-(Morpholin-4-Yl)Ethyl 4-{[6-(5-Chloro-2-Fluorophenyl)Pyridazin-4-Yl]Amino}Quinoline-6-Carboxylate], the IC50 lay in the range of 5 to 10 nM. `O=C(OCCN1CCOCC1)c1ccc2c(Nc3cnnc(-c4cc(Cl)ccc4F)c3)ccnc2c1` [Example 6, 2-(Morpholin-4-Yl)Ethyl 4-{[6-(5-Chloro-2-Fluorophenyl)Pyridazin-4-Yl]Amino}Quinoline-7-Carboxylate]: the IC50 was less than 1 nM. With `O=C(Nc1cc(Nc2cnnc(-c3cc(Cl)ccc3F)c2)ccn1)C1CC1` [Example 7, N-(4-{[6-(5-Chloro-2-Fluorophenyl)Pyridazin-4-Yl]Amino}Pyridin-2-Yl)Cyclopropanecarboxamide], the half-inhibitory concentration (IC50) was less than 1 nM. Take `O=C(CCCN1CCOCC1)Nc1cc(Nc2cnnc(-c3cc(Cl)ccc3F)c2)ccn1` [Example 8, N-(4-{[6-(5-Chloro-2-Fluorophenyl)Pyridazin-4-Yl]Amino}Pyridin-2-Yl)-4-(Morpholin-4-Yl)Butanamide]: the IC50 was less than 1 nM. Still for that read-out and setting: for `Fc1ccc(Cl)cc1-c1cc(Nc2ccnc3cc(OCCN4CCNCC4)ccc23)cnn1` [Example 9, N-[6-(5-chloro-2-fluorophenyl)pyridazin-4-yl]-7-[2-(piperazin-1-yl)ethoxy]quinolin-4-amine] the value was less than 1 nM.

Consider `O=C(NCCN1CCNCC1)c1ccc2c(Nc3cnnc(-c4cc(Cl)ccc4F)c3)ccnc2c1` [Example 10, 4-{[6-(5-Chloro-2-Fluorophenyl)Pyridazin-4-Yl]Amino}-N-[2-(Piperazin-1-Yl)Ethyl]Quinoline-7-Carboxamide], for which the concentration for half-maximal inhibition (IC50) is less than 1 nM.

Take `CN1CCN(CCOc2ccc3c(Nc4cnnc(-c5cc(Cl)ccc5F)c4)ccnc3c2)CC1` [Example 12, N-[6-(5-Chloro-2-Fluorophenyl)Pyridazin-4-Yl]-7-[2-(4-Methylpiperazin-1-Yl)Ethoxy]Quinolin-4-Amine]: the IC50 was less than 1 nM. Regarding `CN1CCN(CCNC(=O)c2ccc3c(Nc4cnnc(-c5cc(Cl)ccc5F)c4)ccnc3c2)CC1` [Example 13, 4-{[6-(5-Chloro-2-Fluorophenyl)Pyridazin-4-Yl]Amino}-N-[3-(4-Methylpiperazin-1-Yl)Ethyl]Quinoline-7-Carboxamide], the IC50 is less than 1 nM. As for `CN1CCC(CCNC(=O)c2ccc3c(Nc4cnnc(-c5cc(Cl)ccc5F)c4)ccnc3c2)CC1` [Example 14, 4-{[6-(5-Chloro-2-Fluorophenyl)Pyridazin-4-Yl]Amino}-N-[2-(1-Methylpiperidin-4-Yl)Ethyl]Quinoline-7-Carboxamide], the IC50 was less than 1 nM. As for `Cc1nnc(-c2cc(Cl)ccc2F)cc1Nc1ccnc(NC(=O)CCN2CCN(C)CC2)c1` [Example 16, N-(4-{[6-(5-chloro-2-fluorophenyl)-3-methylpyridazin-4-yl]amino}pyridin-2-yl)-3-(4-methylpiperazin-1-yl)propanamide], the IC50 was less than 1 nM. Same read-out and setting: for `CN1CCC(CCOc2ccc3c(Nc4cnnc(-c5cc(Cl)ccc5F)c4)ccnc3c2)CC1` [Example 17, N-[6-(5-Chloro-2-Fluorophenyl)Pyridazin-4-Yl]-7-[2-(1-Methylpiperidin-4-Yl)Ethoxy]Quinolin-4-Amine] the value was less than 1 nM; for `CN(CCC(=O)Nc1cc(Nc2cnnc(-c3cc(Cl)ccc3F)c2)ccn1)C1COC1` [Example 18, N-(4-{[6-(5-Chloro-2-Fluorophenyl)Pyridazin-4-Yl]Amino}Pyridin-2-Yl)-3-[Methyl(Oxetan-3-Yl)Amino]Propanamide], less than 1 nM. On to `CN1CCC(OC(=O)c2ccc3c(Nc4cnnc(-c5cc(Cl)ccc5F)c4)ccnc3c2)CC1` [Example 20, 1-Methylpiperidin-4-Yl 4-{[6-(5-Chloro-2-Fluorophenyl)Pyridazin-4-Yl]Amino}Quinoline-7-Carboxylate], for which the IC50 was less than 1 nM.

In the case of `CN1CCN(CCNC(=O)c2c[nH]c3nccc(Nc4cnnc(-c5cc(Cl)ccc5F)c4)c23)CC1` [Example 21, 4-{[6-(5-Chloro-2-Fluorophenyl)Pyridazin-4-Yl]Amino}-N-[2-(4-Methylpiperazin-1-Yl)Ethyl]-1H-Pyrrolo[2,3-13]Pyridine-3-Carboxamide], the IC50 lay within 1 to 5 nM. For the compound `CN1CCN(CCC(=O)Nc2cc(Nc3cnnc(-c4cc(Cl)ccc4F)c3)ccn2)C(=O)C1` [Example 22, N-(4-{[6-(5-Chloro-2-Fluorophenyl)Pyridazin-4-Yl]Amino}Pyridin-2-Yl)-3-(4-Methyl-2-Oxopiperazin-1-Yl)Propanamide], the IC50 was 1 to 5 nM. Regarding `CN1CC(NC(=O)c2cc3c(Nc4cnnc(-c5cc(Cl)ccc5F)c4)ccnc3cn2)C1` [Example 23, 4-{[6-(5-Chloro-2-Fluorophenyl)Pyridazin-4-Yl]Amino}-N-(1-Methylazetidin-3-Yl)-1,7-Naphthyridine-6-Carboxamide], the IC50 is 5 to 10 nM. As for `CN1CCN(CCC(=O)Nc2cc(Nc3cnnc(-c4cc(Cl)ccc4F)c3)ccn2)CC1=O` [Example 24, N-(4-{[6-(5-Chloro-2-Fluorophenyl)Pyridazin-4-Yl]Amino}Pyridin-2-Yl)-3-(4-Methyl-3-Oxopiperazin-1-Yl)Propanamide], the concentration for half-maximal inhibition (IC50) was 1 to 5 nM.

On to `CN1CCN(CCNC(=O)c2cc3c(Nc4cnnc(-c5cc(Cl)ccc5F)c4)ccnc3[nH]2)CC1` [Example 25, 4-{[6-(5-chloro-2-fluorophenyl)pyridazin-4-yl]amino}-N-[2-(4-methylpiperazin-1-yl)ethyl]-1H-pyrrolo[2,3-b]pyridine-2-carboxamide], for which the IC50 is less than 1 nM. `CN1CCC(NC(=O)c2cc3c(Nc4cnnc(-c5cc(Cl)ccc5F)c4)ccnc3cn2)CC1` [Example 26, 4-{[6-(5-Chloro-2-Fluorophenyl)Pyridazin-4-Yl]Amino}-N-(1-Methylpiperidin-4-Yl)-1,7-Naphthyridine-6-Carboxamide]: the IC50 lay in the range of 1 to 5 nM.

In the case of `CN1CCC(CCNC(=O)c2cc3c(Nc4cnnc(-c5cc(Cl)ccc5F)c4)ccnc3[nH]2)CC1` [Example 27, 4-{[6-(5-Chloro-2-Fluorophenyl)Pyridazin-4-Yl]Amino}-N-[2-(1-Methylpiperidin-4-Yl)Ethyl]-1H-Pyrrolo[2,3-b]Pyridine-2-Carboxamide], the IC50 was less than 1 nM.

As to `CN1CCN(CCCOc2ccc3c(Nc4cnnc(-c5cc(Cl)ccc5F)c4)ccnc3c2)CC1` [Example 29, N-[6-(5-Chloro-2-Fluorophenyl)Pyridazin-4-Yl]-7-[3-(4-Methylpiperazin-1-Yl)Propoxy]Quinolin-4-Amine], the IC50 is less than 1 nM. On the same count and under the same terms, for `CCN1CCN(CCOc2ccc3c(Nc4cnnc(-c5cc(Cl)ccc5F)c4)ccnc3c2)CC1` [Example 30, N-[6-(5-Chloro-2-Fluorophenyl)Pyridazin-4-Yl]-7-[2-(4-Ethylpiperazin-1-Yl)Ethoxy]Quinolin-4-Amine] the value was less than 1 nM; for `CC(=O)N1CCN(CCC(=O)Nc2cc(Nc3cnnc(-c4cc(Cl)ccc4F)c3)ccn2)CC1` [Example 31, 3-(4-Acetylpiperazin-1-Yl)-N-(4-{[6-(5-Chloro-2-Fluorophenyl)Pyridazin-4-Yl]Amino}Pyridin-2-Yl)Propanamide], less than 1 nM. Still for that read-out and setting: for `CN1CCN(CCC(=O)Nc2ccc3c(Nc4cnnc(-c5cc(Cl)ccc5F)c4)ccnc3c2)CC1` [Example 32, N-(4-{[6-(5-Chloro-2-Fluorophenyl)Pyridazin-4-Yl]Amino}Quinolin-7-Yl)-3-(4-Methylpiperazin-1-Yl)Propanamide] the value was less than 1 nM. `CN1CCCN(CCC(=O)Nc2cc(Nc3cnnc(-c4cc(Cl)ccc4F)c3)ccn2)C1` [Example 33, N-(4-{[6-(5-Chloro-2-Fluorophenyl)Pyridazin-4-Yl]Amino}Pyridin-2-Yl)-3-(3-Methyl-1,3-Diazinan-1-Yl)Propanamide]: the IC50 was less than 1 nM. In the case of `CS(=O)(=O)N1CCN(CCC(=O)Nc2cc(Nc3cnnc(-c4cc(Cl)ccc4F)c3)ccn2)CC1` [Example 34, N-(4-{[6-(5-Chloro-2-Fluorophenyl)Pyridazin-4-Yl]Amino}Pyridin-2-Yl)-3-(4-Methanesulfonylpiperazin-1-Yl)Propanamide], the IC50 lay within 1 to 5 nM. Same read-out and setting: then `CC(=O)N1CCN(CCOc2ccc3c(Nc4cnnc(-c5cc(Cl)ccc5F)c4)ccnc3c2)CC1` [Example 35, 1-(4-{2-[(4-{[6-(5-Chloro-2-Fluorophenyl)Pyridazin-4-Yl]Amino}Quinolin-7-Yl)Oxy]Ethyl}Piperazin-1-Yl)Ethan-1-One], with less than 1 nM.

These data come from patent US20240018122A1, “PYRIDAZINYL AMINO DERIVATIVES AS ALK5 INHIBITORS” (CHIESI FARMACEUTICI S.P.A., priority 2020, published 2024).
